What was measured:
Experiment in all cases: Paper diffusion drug sensitivity test (zone of inhibition)
Format in all cases: cell-based
[1] = test system: Staphylococcus aureus (SAU); details: LB agar, 37° C., 24 h, control drugs 30 μg/tablet, extract 128 μg/tablet, ≥17 mm sensitive, 15-16 mm intermediate, ≤14 mm resistant
Method: (§1) The bacteriostatic activity test experiment was carried out on the Syringa pubescens microphylla extract of the present invention, and the bacteriostatic effect was determined by a paper diffusion drug sensitivity method.
(§2) Experimental strains: Staphylococcus aureus (SAU), multi-drug resistant Staphylococcus aureus 18-206, multi-drug resistant Pseudomonas aeruginosa 18-261. The experimental strains were provided by Huashan Hospital, Fudan University (Institute of Antibiotics, Fudan University).
(§3) Drug sensitive paper: The drug sensitive paper is a special drug sensitive paper with a diameter of 6.35 mm and a water absorption of 0.02 mL. The control drugs were cefazolin sodium (30 μg/tablet), vancomycin (30 μg/tablet) and gentamicin (30 μg/tablet); the test drug was the Syringa pubescens microphylla extract (128 μg/tablet).
(§4) The experimental strains were inoculated in a non-selective medium and incubated in air at 37 C for 24 hours. A single colony was selected and inoculated into a broth medium, and incubated at 35±2° C. for 6 hours. LA broth medium was used to correct the concentration of the bacterial solution to 1.5×10^8 CFU/mL to obtain a bacterial suspension.
(§5) Weighing LB dry powder, autoclaving at 103.4 Kpa, 121.3° C. for 15 min, then placing in a 40° C.-50° C. water bath. Sterile empty plates (with an inner diameter of 9 cm) were placed on a water platform of the ultra-clean table. LB solution was poured to the plates, with agar thickness of 3 mm-4 mm. After the plates were cooled at room temperature, they were stored in a refrigerator at 2° C. to 8° C. Bacteria liquid was spread evenly with a sterile cotton swab on the surface of the LB plate 3 times. The LB plate was dried at room temperature for 3 min to 5 min. An antibacterial drug paper sheet was placed in the plate using sterile tweezers. The plates were placed in a 37° C. incubator for 24 h. The diameter of inhibition zone was measured. 0.5% DMSO solution was used as the negative control. The diameter of inhibition zone was to measure the antibacterial activity. Inhibition zone≥17 mm, sensitive; inhibition zone=15 mm-16 mm, intermediate; inhibition zone≤14 mm, resistant.

[2] = test system: multi-drug resistant Pseudomonas aeruginosa 18-261; details: strain 18-261; LB agar, 37° C., 24 h; control drugs 30 μg/tablet, extract 128 μg/tablet; ≥17 mm sensitive, 15-16 mm intermediate, ≤14 mm resistant
Method: as §1, §2, §3, §4, §5

[3] = test system: multi-drug resistant Staphylococcus aureus 18-171; details: strain 18-171; LB agar, 37° C., 24 h; control drugs 30 μg/tablet, extract 128 μg/tablet; ≥17 mm sensitive, 15-16 mm intermediate, ≤14 mm resistant

Compound | Diameter of Inhibition Zone [1] [mm] | Diameter of Inhibition Zone [2] [mm] | Diameter of Inhibition Zone [3] [mm]
Cc1nnc(SCC2=C(C(=O)O)N3C(=O)[C@@H](NC(=O)Cn4cnnn4)[C@H]3SC2)s1 [cefazolin sodium] | 10 | 0 | 0
CN[C@H](CC(C)C)C(=O)N[C@H]1C(=O)N[C@@H](CC(N)=O)C(=O)N[C@H]2C(=O)N[C@H]3C(=O)N[C@H](C(=O)N[C@H](C(=O)O)c4cc(O)cc(O)c4-c4cc3ccc4O)[C@H](O)c3ccc(c(Cl)c3)Oc3cc2cc(c3O[C@@H]2O[C@H](CO)[C@@H](O)[C@H](O)[C@H]2O[C@H]2C[C@](C)(N)[C@H](O)[C@H](C)O2)Oc2ccc(cc2Cl)[C@H]1O [vancomycin] | 23 |  | 17
gentamicin | 18 | 17 | 16
